In patent US20200316087A1, “NOVEL COMBINATION THERAPY FOR ANXIETY DISORDERS, EPILEPSY, AND PAIN” (priority 2017, published 2020):

Columns and labels:
[1] = tested on: electroshock-induced seizures; test: Mouse electroshock-induced seizure model; assay type: in vivo; conditions: mice; for Electroshock to Criteria: MED producing maximal protection (0% seizures); for Electroshock (minimal effective dose, MED): lowest dose with statistically significant protection vs vehicle
Procedure: This assay detects effects of compounds that produce generalized seizures and those that dampen seizure spread. Male, CD1 mice (Taconic Farms) were studied at weights of 21-32 g. Mice=10/dose) were used with Wahlquist Model H stimulator with 0.2 sec stimulation with corneal electrodes. […] Mice were euthanized immediately following the test. Tonic extension was used as the primary endpoint.
(§1) For the in vivo assays, minimal effective doses (MED) were calculated in mg/kg. MED was defined as the lowest dose administered that produced statistically significant protection compared to vehicle control in the anticonvulsant assays. The MED, or minimal toxic dose (MTD) for motor impairment, was the minimal dose required to produce statistically-significant impairment in motor performance. Doses tested are shown in the figures and tables and are generally dosed in ½ log increments. The protective index (PT) was calculated at the MTD/MED.

[2] = tested on: PTZ-induced clonus; test: Pentylenetetrazole (PTZ, 35 mg/kg s.c.)-induced clonic convulsions; assay type: in vivo; conditions: rats; for PTZ Clonus to Criteria 1: MED producing maximal protection (0% seizures); for PTZ Clonus Potency (MED): lowest dose with statistically significant protection; for PTZ Clonus Potency (MED) / protection against PTZ-induced clonus: PTZ 35 mg/kg s.c.
Procedure: After the inverted screen test, the rats were dosed with pentylenetetrazole (PTZ)(35 mg/kg, s.c.) in a volume of 1 ml/kg and placed in an observation cage (40.6×20.3×15.2 cm) with a floor containing […] of wood chip bedding material. PTZ dose was determined to be ˜EC97 for producing clonic convulsions.

[3] = tested on: PTZ seizure threshold; test: Pentylenetetrazole (PTZ, i.v.)-induced seizure threshold; assay type: in vivo, rats; conditions: for PTZ Threshold to Criteria: MED for producing ≥2× PTZ seizure threshold at baseline; for PTZ Threshold Poteny (MED): lowest dose with statistically significant effect, PTZ i.v.; for PTZ Threshold Poteny (MED) / effect on dose of PTZ required to induce convulsions: rats; for effect on dose of PTZ required to induce convulsions: PTZ i.v. infusion, pretreatment 30 min
Procedure: Male […] Sprague-Dawley rats (Indianapolis, Ind.) were randomly assigned to treatment groups and dosed with vehicle (vehicle=1% carboxymethyl cellulose) with diazepam (0.1, 0.3, or 1 mg/kg) or test compound (3, 10, 30, or 60 mg/kg) 30 minutes prior to testing. Rats were placed in a restrainer and a winged infusion needle was inserted into the lateral tail vein. Intravenous infusion with 10 mg/ml PTZ at a rate of 0.5 ml/min was initiated until a clonic convulsion occurred, and the time to clonic convulsion was recorded in sec or a maximum of 4 min was recorded. Following infusion, rats are euthanized. The dose of PTZ required to elicit a clonic convulsion was calculated using the infusion rate, concentration of PTZ, time to clonic convulsion, and animal weight.

[4] = tested on: seizures in amygdala kindled rats; test: Basolateral amygdala kindling; assay type: in vivo; conditions: for After-Discharge Duration to Criteria: MED for producing after-discharge duration ≤30 sec; for After-Discharge Threshold to Criteria: MED for producing after-discharge threshold ≥3; for Seizure Severity to Criteria: MED for producing seizure severity score ≤2; for After-Discharge Duration Potency (MED) / After-Discharge Threshold Potency (MED) / Seizure Severity Poteny (MED) / effect on adjusted after-discharge threshold (ADT) / effect on after-discharge duration (ADD) / effect on seizure severity score / kindling measures / Seizure free scores (seizure severity=0): amygdala kindled rats; for Seizure free scores (seizure severity=0): groups of 8
Procedure: Seizure kindling models evaluate effects of drugs on the sensitization of the nervous system to seizure induction. In this test, drugs were evaluated for their ability to impact seizure parameters in rats that were fully kindled by daily electrical stimulation of their amygdala. Valproic acid was used as a positive control. Experiments were conducted using the general procedures of Zwart et al. (J. Pharmacol. Exp. Ther., 2014, 351:124-133). A bipolar electrode for electrical stimulation and EEG recording was stereotaxically implanted into one hemisphere of the basolateral amygdala (AP −2.2, ML −4.8, DV −8.5 mm, relative to bregma) of male Wistar rats. After post-operative recovery, electrical kindling begins, where a subthreshold constant current (400 μA, 1 ms, monophasic square-wave pulses, 60 Hz for 1 sec) is given once a day Monday-Friday for about 4-6 weeks until a rat is fully kindled. A fully kindled rat has experienced 10 consecutive stage 5 seizures or 10 of its last 12 were stage 5 according to the Racine Scale.
Twelve fully kindled rats were assigned to this study, and eight rats were selected and randomized to initial compound treatment groups from baseline after discharge threshold (ADT), seizure severity score, and after discharge duration (ADD). […] On test day, rats were dosed 30 min prior to beginning stimulation. After the pre-treatment, rats were stimulated using an ascending staircase sequence beginning at 10 μA and increasing in log unit steps of 10, 16, 25, 40, 65, 100, 160, 250, and 400 μA. Animals were stimulated until they were assigned a Seizure Severity Score for a visually observably seizure or they reached the 400 μA threshold limit. ADD was determined following testing. ADT was the current that induced a seizure; measurements were scale-adjusted to capture the stimulation scale change required to observe a seizure from the previous baseline to the ADT scored on test day. […] The average scale adjusted ADT was approximately 0.63 μA in vehicle treated rats.
Racine score of behavioral response to stimulation: 0=no behavioral response; 1=immobility, staring and/or facial clonus; 2=head nodding, jaw clonus, and/or tongue protrusion; 3=unilateral forelimb clonus; 4=bilateral forelimb clonus and/or rearing; 5=bilateral forelimb clonus with rearing and loss of balance.
After-Discharge Duration (ADD) is the duration of the first after-discharge.
ADT, ADD, and severity scores were analyzed by ANOVA. Seizure severity data was also analyzed by the nonparametric Skillings-Mack test, a generalization of the Friedman test for one-way repeated measures designs. Posthoc tests when reported were either by Dunnett's method (seizure severity) or using Wilcoxon sign rank tests (ADT and ADD). Valproic acid, used as a positive control was not used in ANOVA calculations.

[5] = tested on: motor performance on an inverted screen; test: Rat inverted screen test (motor impairment); conditions: rats
Description: The motor effects of Diazepam and KRM-II-81 were studied on the inverted screen. The inverted screen test is used to measure whether or not a test compound induces muscle relaxation. When a test subject is placed on a wire screen which is then inverted, the reaction is to climb to the opposite side so they are no longer hanging upside down.
Male, Sprague Dawley rats (Harlan Sprague Dawley, Indianapolis, Ind.) were used and weighed 90-110 g when evaluated in experiments. […] Rats were placed onto the top of a wire screen, which was then inverted so that the rats were hanging upside down.
Male Sprague-Dawley rats (n=5) were dosed i.p. (vehicle=1% carboxymethyl cellulose) with diazepam (3, 10, or 30 mg/kg), KRM-II-81 (10, 30, or 60 mg/kg) or HZ-166 (30 mg/kg) 30 minutes prior to testing. Rats were placed onto the top of a wire screen, which was then inverted so that the rats were hanging upside down. […] Results were analyzed using ANOVA (Dunnett's test: *P<0.05).
as §1

[6] = tested on: immobility in forced-swim test; test: Forced-swim assay; assay type: in vivo, mice; conditions: male NIH Swiss mice, i.p., 30 min prior
Procedure: Male NIH Swiss mice (Envigo, Indianapolis, Ind.) were studied. Mice were placed in clear plastic cylinders (diameter: 10 cm; height: 25 cm) filled with 6 cm of water (22-25° C.) for six min. […] The duration of immobility during the last four min of the six min test period was scored. A mouse was recorded as immobile when floating motionless or making only those movements necessary to keep its head above water.

**Q.** Which “Electroshock to Criteria” value [1] does the source give for `C#Cc1ccc2c(c1)C(c1ccccn1)=NCc1c(-c3cnco3)ncn1-2` [KRM-II-81, 5-(8-ethynyl-6-(pyridin-2-yl)-4H-benzo[f]imidazo[1,5-a][1,4]diazepin-3-yl)oxazole] here?
**A.** 30 mg/kg

**Q.** And the “Electroshock (minimal effective dose, MED)” value [1]?
**A.** 10 mg/kg

**Q.** What about the “protection against electroshock-induced seizures” value [1] of the same molecule?
**A.** fully prevented

**Q.** What about the “PTZ Clonus to Criteria 1” value [2] of the same molecule?
**A.** 30 mg/kg

**Q.** What about the “PTZ Clonus Potency (MED)” value [2] of the same molecule?
**A.** 30 mg/kg

**Q.** And the “protection against PTZ-induced clonus” value [2]?
**A.** fully prevented

**Q.** What about the “PTZ Threshold to Criteria” value [3] of the same molecule?
**A.** 30 mg/kg

**Q.** What about the “PTZ Threshold Poteny (MED)” value [3] of the same molecule?
**A.** 10 mg/kg

**Q.** And the “dose of PTZ required to induce convulsions” value ([3]; pretreated with 10 mg/kg of KRM-II-81, vehicle baseline 35.1±1.2 mg/kg)?
**A.** 71 mg/kg

**Q.** And the “effect on dose of PTZ required to induce convulsions” value [3]?
**A.** increased the dose of PTZ required to induce convulsions

**Q.** What about the “After-Discharge Duration to Criteria” value [4] of the same molecule?
**A.** 10 mg/kg

**Q.** What about the “After-Discharge Threshold to Criteria” value [4] of the same molecule?
**A.** 10 mg/kg

**Q.** What about the “Seizure Severity to Criteria” value [4] of the same molecule?
**A.** 10 mg/kg

**Q.** And the “After-Discharge Duration Potency (MED)” value [4]?
**A.** 10 mg/kg

**Q.** What about the “After-Discharge Threshold Potency (MED)” value [4] of the same molecule?
**A.** 10 mg/kg

**Q.** What about the “Seizure Severity Poteny (MED)” value [4] of the same molecule?
**A.** 10 mg/kg

**Q.** And the “effect on adjusted after-discharge threshold (ADT)” value [4]?
**A.** significantly increased

**Q.** What about the “effect on after-discharge duration (ADD)” value [4] of the same molecule?
**A.** significant decreases

**Q.** And the “effect on seizure severity score / kindling measures” value [4]?
**A.** most efficacious and potent

**Q.** What about the “Seizure free scores (seizure severity=0)” value [4] of the same molecule?
**A.** 7/8

**Q.** And the “muscle relaxation on inverted screen (result in words)” value ([5]; i.p., 30 min prior, KRM-II-81 10-60 mg/kg, HZ-166 30 mg/kg)?
**A.** Neither HZ-166 nor KRM-II-81 induced significant muscle relaxation

**Q.** What about the “dose at which signs of muscle relaxation began to appear” value ([5]; i.p., inverted screen) of the same molecule?
**A.** 60 mg/kg

**Q.** What about the “immobility in forced-swim assay” value [6] of the same molecule?
**A.** moderate, dose-dependent decrease in immobility

**Q.** With `C#Cc1ccc2c(c1)C(c1ccccc1)=NCc1c(-c3cnco3)ncn1-2` [KRM-II-82, 5-(8-ethynyl-6-phenyl-4H-benzo[f]imidazo[1,5-a][1,4]diazepin-3-yl)oxazole] as the molecule, how does the “Electroshock to Criteria” value [1] read?
**A.** 30 mg/kg

**Q.** What about the “Electroshock (minimal effective dose, MED)” value [1] of the same molecule?
**A.** 30 mg/kg

**Q.** What about the “protection against electroshock-induced seizures” value [1] of the same molecule?
**A.** fully prevented

**Q.** What about the “PTZ Clonus to Criteria 1” value [2] of the same molecule?
**A.** 30 mg/kg

**Q.** And the “PTZ Clonus Potency (MED)” value [2]?
**A.** 10 mg/kg

**Q.** What about the “protection against PTZ-induced clonus” value [2] of the same molecule?
**A.** dose-dependently suppressed

**Q.** What about the “PTZ Threshold to Criteria” value [3] of the same molecule?
**A.** 30 mg/kg

**Q.** And the “PTZ Threshold Poteny (MED)” value [3]?
**A.** 10 mg/kg

**Q.** And the “effect on dose of PTZ required to induce convulsions” value [3]?
**A.** increased the dose of PTZ required to induce convulsions

**Q.** What about the “After-Discharge Duration to Criteria” value [4] of the same molecule?
**A.** >30 mg/kg

**Q.** What about the “After-Discharge Threshold to Criteria” value [4] of the same molecule?
**A.** 30 mg/kg

**Q.** And the “Seizure Severity to Criteria” value [4]?
**A.** >30 mg/kg

**Q.** What about the “After-Discharge Duration Potency (MED)” value [4] of the same molecule?
**A.** >30 mg/kg

**Q.** What about the “After-Discharge Threshold Potency (MED)” value [4] of the same molecule?
**A.** 10 mg/kg

**Q.** And the “Seizure Severity Poteny (MED)” value [4]?
**A.** 10 mg/kg

**Q.** What about the “effect on adjusted after-discharge threshold (ADT)” value [4] of the same molecule?
**A.** significantly increased

**Q.** What about the “effect on after-discharge duration (ADD)” value [4] of the same molecule?
**A.** trend for a significant effect

**Q.** And the “effect on seizure severity score / kindling measures” value [4]?
**A.** trend toward efficacy

**Q.** What about the “Seizure free scores (seizure severity=0)” value [4] of the same molecule?
**A.** 1/8

**Q.** And the “effect on motor performance” value ([5]; up to 30 mg/kg, inverted screen)?
**A.** without significant effect on motor performance

**Q.** And the “immobility in forced-swim assay” value [6]?
**A.** significantly decreased immobility time
